According to US7339080B2, “Method for the production of diaminoxylene by continuous hydrogenation of liquid phthalonitrile” (BASF Aktiengesellschaft, priority 2003, dated 2008):

Assay: solubility of IPN in process solvents (MXDA, liquid ammonia)
Type: physicochemical

SMILES: N#Cc1cccc(C#N)c1 [IPN, 1,3-dicyanobenzene]
- solubility of IPN in MXDA (in MXDA at 70° C.): approx. 20 % by weight
- solubility of IPN in NH3 (in liquid ammonia (NH3) at 40° C.): approx. 45 % by weight
